Measurements: patent publication US8399440B2, “Disease modifying anti-arthritic activity of 2-methoxyestradiol” (EntreMed, Inc., priority 2006, dated 2013)

Tested on: Arthrogen Collagen MAb-Induced Arthritis
Assay: Arthrogen collagen MAb-induced arthritis (Arthrogen-CIA model of RA)
Type: in vivo, Mouse (Balb/C)
Details: Study SMP05-046; either drug alone (2ME2 10 or 100 mg/kg/d PO; MTX 0.1 or 1 mg/kg/d IP)

SMILES: CN(Cc1cnc2nc(N)nc(N)c2n1)c1ccc(C(=O)N[C@@H](CCC(=O)O)C(=O)O)cc1 [MTX, methotrexate, reference compound]
- pathology in the liver: No pathology
